How the values were obtained:
eye = assay: Eye irritation
Acute Oral LD50 = conditions: rat, in vivo
rabbit skin = assay: Primary Skin Irritation

Row | Structure (SMILES) | Ames Test, mutagenicity (Ames Test (mutagenicity)) | Eye irritation (eye; left in without washout) | Eye irritation (eye; material washed out 4 seconds after introduction) | LD50 (Acute Oral LD50) [mg/kg] | Primary Skin Irritation (rabbit skin)
1 | CCCCOC(=O)C1(Cl)OC(Cl)C(Cl)C1Cl (stereo not drawn) [UKU, Butyl 2,3,4,5-Tetrachloro-2,3,4,5, Tetrahydro-2-Furoate] | negative | – | – | – | –
2 | O=C(OCC1(Cl)OC(Cl)C(Cl)C1Cl)C1(Cl)OC(Cl)C(Cl)C1Cl (stereo not drawn) [ZXU, Tetrachlorotetrahydrofurfuryl Tetrachlorotetrahydrofuroate] | negative | severe irritant | Mild irritant | 1100 ± 150 | Moderate irritant

Source: patent US4451575A, “Activators for Ziegler type polymerization catalysts using bis(trichloromethyl) sulfone” (Uniroyal, Inc., priority 1982, dated 1984)
